Assay results: ChEMBL document CHEMBL6078723, “Novel steroidal β-carboline derivatives as promising antibacterial candidates against methicillin-resistant Staphylococcus aureus” (Eur J Med Chem, 2025)
Active and inactive are the calls of the source. The calls are words filed in the database; no cut-off is given here.

How the values were obtained:
Staphylococcus aureus [1] = test: Antibacterial activity against Staphylococcus aureus CGMCC1.8721 at pH 8 (reference value: 0.5 ug/ml); assay type: functional
Staphylococcus aureus [2] = test: Antibacterial activity against methicillin-resistant Staphylococcus aureus ATCC 33591 in presence of Na+ (reference value: 1 ug/ml); assay type: functional
Staphylococcus aureus [3] = test: Antibacterial activity against methicillin-resistant Staphylococcus aureus CGMCC1.12409 infected in mouse model assessed as reduction in abscesses size at 5 to 10 mg/kg measured for 5 days; assay type: functional, organism-based; conditions: dose 5-10 mg/kg, time 5.0 day
Staphylococcus aureus [4] = test: Antibacterial activity against methicillin-resistant Staphylococcus aureus CGMCC1.12409 in presence of Na+ (reference value: 0.5 ug/ml); assay type: functional
Staphylococcus aureus [5] = test: Antibacterial activity against methicillin-resistant Staphylococcus aureus ATCC 33591 in presence of H2PO4- (reference value: 1 ug/ml); assay type: functional
Staphylococcus aureus [6] = test: Induction of bacterial regrowth of Staphylococcus aureus CGMCC1.8721 at 4 to 8 times MIC measured after 24 hrs by time kill assay; assay type: functional, organism-based
Staphylococcus aureus [7] = test: Antibacterial activity against methicillin-resistant Staphylococcus aureus CGMCC1.12409 infected in mouse model assessed as reduction in bacterial load at infection site at 10 mg/kg measured for 5 days relative to control; assay type: functional; parameters: scale not given: the % may be the effect or the level left; conditions: time 5 day
Staphylococcus aureus [8] = test: Antibacterial activity against methicillin-resistant Staphylococcus aureus ATCC 43300 at 36.5 degreeC (reference value: 0.5 ug/ml); assay type: functional
Staphylococcus aureus [9] = test: Antibacterial activity against methicillin-resistant Staphylococcus aureus CGMCC1.12409 in presence of Ca2+ (reference value: 0.5 ug/ml); assay type: functional
Staphylococcus aureus [10] = test: Antibacterial activity against Staphylococcus aureus CGMCC1.8721 in presence of phosphatidylcholine; assay type: functional, organism-based
Staphylococcus aureus [11] = test: Bactericidal activity against methicillin-resistant Staphylococcus aureus ATCC 43300 by CLSI based method; assay type: functional
Staphylococcus aureus [12] = test: Bactericidal activity against methicillin-resistant Staphylococcus aureus ATCC 33591 by CLSI based method; assay type: functional
Staphylococcus aureus [13] = test: Antibacterial activity against Staphylococcus aureus CGMCC1.8721 in presence of Zn2+ (reference value: 0.5 ug/ml); assay type: functional
Staphylococcus aureus [14] = test: Antibacterial activity against Staphylococcus aureus CGMCC1.8721 in presence of Fe2+ (reference value: 0.5 ug/ml); assay type: functional
Staphylococcus aureus [15] = test: Induction of morphological change in Staphylococcus aureus CGMCC1.8721 assessed as appearance of atrophy at MIC by […] SEM analysis; assay type: functional, organism-based
Staphylococcus aureus [16] = test: Antibacterial activity against methicillin-resistant Staphylococcus aureus ATCC 43300 in presence of Ca2+ (reference value: 0.5 ug/ml); assay type: functional
Staphylococcus aureus [17] = test: Induction of morphological change in Staphylococcus aureus CGMCC1.8721 assessed as appearance of surface folds at MIC by […] SEM analysis; assay type: functional, organism-based
Staphylococcus aureus [18] = test: Antibacterial activity against methicillin-resistant Staphylococcus aureus ATCC 33591 in presence of Fe3+ (reference value: 1 ug/ml); assay type: functional
HeLa = test: Cytotoxicity against human HeLa cells at 40 uM by CCK8 assay relative to control; assay type: toxicity, cell-based
Staphylococcus aureus [19] = test: Induction of morphological change in Staphylococcus aureus CGMCC1.8721 assessed as depression of cell surface at 4 times MIC by […] SEM analysis; assay type: functional, organism-based
Staphylococcus aureus [20] = test: Antibacterial activity against methicillin-resistant Staphylococcus aureus ATCC 33591 in presence of K+ (reference value: 1 ug/ml); assay type: functional
Staphylococcus aureus [21] = test: Antibacterial activity against methicillin-resistant Staphylococcus aureus ATCC 43300 at pH 6.5 (reference value: 0.5 ug/ml); assay type: functional
Staphylococcus aureus [22] = test: Antibacterial activity against methicillin-resistant Staphylococcus aureus CGMCC1.12409 at pH 6.5 (reference value: 0.5 ug/ml); assay type: functional
Staphylococcus aureus [23] = test: Bactericidal activity against methicillin-resistant Staphylococcus aureus CGMCC1.12409 by CLSI based method; assay type: functional
Staphylococcus aureus [24] = test: Antibacterial activity against Staphylococcus aureus CGMCC1.8721 in presence of PGN; assay type: functional, organism-based
Staphylococcus aureus [25] = test: Induction of cell membrane damage in Staphylococcus aureus CGMCC1.8721 assessed as red fluorescence at 4 times MIC by SYTO9/PI staining based CLSM analysis; assay type: functional, organism-based
Staphylococcus aureus [26] = test: Antibacterial activity against Staphylococcus aureus CGMCC1.8721 in presence of Na+ (reference value: 0.5 ug/ml); assay type: functional
HepG2 = test: Cytotoxicity against human HepG2 cells at 40 uM by CCK8 assay relative to control; assay type: toxicity, cell-based; conditions: hepg2, 40 µM
Staphylococcus aureus [27] = test: Antibacterial activity against Staphylococcus aureus CGMCC1.8721 in presence of ATP; assay type: functional, organism-based
Staphylococcus aureus [28] = test: Antibacterial activity against methicillin-resistant Staphylococcus aureus ATCC 43300 in presence of Fe2+ (reference value: 0.5 ug/ml); assay type: functional
Staphylococcus aureus [29] = test: Antibacterial activity against methicillin-resistant Staphylococcus aureus CGMCC1.12409; assay type: functional
Staphylococcus aureus [30] = test: Antibacterial activity against methicillin-resistant Staphylococcus aureus CGMCC1.12409 infected in mouse model assessed as reduction in bacterial load at infection site at 5 mg/kg measured for 5 days relative to control; assay type: functional; parameters: scale not given: the % may be the effect or the level left; conditions: time 5 day
Staphylococcus aureus [31] = test: Antibacterial activity against Staphylococcus aureus CGMCC1.8721 in presence of Fe3+ (reference value: 0.5 ug/ml); assay type: functional
Staphylococcus aureus [32] = test: Antibacterial activity against methicillin-resistant Staphylococcus aureus ATCC 43300 at pH 8 (reference value: 0.5 ug/ml); assay type: functional
HEK-293T = test: Cytotoxicity against HEK293T cells at 40 uM by CCK8 assay relative to control; assay type: toxicity, cell-based; conditions: human
Staphylococcus aureus [33] = test: Antibacterial activity against Staphylococcus aureus CGMCC1.8721 in presence of dNTP; assay type: functional, organism-based
Staphylococcus aureus [34] = test: Antibacterial activity against methicillin-resistant Staphylococcus aureus CGMCC1.12409 in presence of H2PO4- (reference value: 0.5 ug/ml); assay type: functional
Staphylococcus aureus [35] = test: Antibacterial activity against methicillin-resistant Staphylococcus aureus ATCC 33591 in presence of Ca2+ (reference value: 1 ug/ml); assay type: functional
Staphylococcus aureus [36] = test: Antibacterial activity against methicillin-resistant Staphylococcus aureus ATCC 33591 at pH 8 (reference value: 1 ug/ml); assay type: functional
Staphylococcus aureus [37] = test: Inhibition of metabolic activity in Staphylococcus aureus CGMCC1.8721; assay type: functional, organism-based
Staphylococcus aureus [38] = test: Antibacterial activity against methicillin-resistant Staphylococcus aureus ATCC 33591 in presence of Fe2+ (reference value: 1 ug/ml); assay type: functional
Staphylococcus aureus [39] = test: Antibacterial activity against methicillin-resistant Staphylococcus aureus CGMCC1.12409 infected in mouse model assessed as reduction in skin lession in subcutaneous tissues at 10 mg/kg measured for 5 days; assay type: functional, organism-based; conditions: time 5.0 day
[40] = Hemolytic activity in rabbit RBC; assay type: toxicity, cell-based, Oryctolagus cuniculus, Erythrocyte; conditions: rabbit red blood cells
Staphylococcus aureus [41] = test: Induction of ROS accumulation in Staphylococcus aureus CGMCC1.8721 by DCFH-DA dye based analysis; assay type: functional, organism-based
Staphylococcus aureus [42] = test: Antibacterial activity against Staphylococcus aureus CGMCC1.8721 in presence of H2PO4- (reference value: 0.5 ug/ml); assay type: functional

## COc1ccc2[nH]c3c(CC[C@H](C)[C@H]4CC[C@H]5[C@@H]6[C@H](O)C[C@@H]7C[C@H](O)CC[C@]7(C)[C@H]6C[C@H](O)[C@]45C)[n+](Cc4ccc(Cl)cc4)ccc3c2c1.[Br-]
Staphylococcus aureus [1]
  MIC: 0.5 µg/mL
Staphylococcus aureus [2]
  MIC: 1 µg/mL
Staphylococcus aureus [3]
  Activity: Active
Staphylococcus aureus [4]
  MIC: 1 µg/mL
Staphylococcus aureus [5]
  MIC: 1 µg/mL
Staphylococcus aureus [6]
  Activity: Not active; Compound Activity Was Higher Than That Of Vancomycin
Staphylococcus aureus [7]
  Activity: 98.55%
Staphylococcus aureus [8]
  MIC: 0.5 µg/mL
Staphylococcus aureus [9]
  MIC: 1 µg/mL
Staphylococcus aureus [10]
  Activity: Active
Staphylococcus aureus [11]
  MBC: 1 µg/mL
Staphylococcus aureus [12]
  MBC: 2 µg/mL
Staphylococcus aureus [13]
  MIC: 0.5 µg/mL
Staphylococcus aureus [14]
  MIC: 0.5 µg/mL
Staphylococcus aureus [15]
  Activity: Active
Staphylococcus aureus [16]
  MIC: 0.5 µg/mL
Staphylococcus aureus [17]
  Activity: Active
Staphylococcus aureus [18]
  MIC: 1 µg/mL
HeLa
  Activity: Non-toxic
Staphylococcus aureus [19]
  Activity: Active
Staphylococcus aureus [20]
  MIC: 1 µg/mL
Staphylococcus aureus [21]
  MIC: 0.5 µg/mL
Staphylococcus aureus [22]
  MIC: 1 µg/mL
Staphylococcus aureus [23]
  MBC: 1 µg/mL
Staphylococcus aureus [24]
  Activity: Active
Staphylococcus aureus [25]
  Activity: Active
Staphylococcus aureus [26]
  MIC: 0.5 µg/mL
HepG2
  Activity: Non-toxic
Staphylococcus aureus [27]
  Activity: Active
Staphylococcus aureus [28]
  MIC: 0.5 µg/mL
Staphylococcus aureus [29]
  MIC: 0.5 µg/mL
Staphylococcus aureus [30]
  Activity: 94.33%
Staphylococcus aureus [31]
  MIC: 0.5 µg/mL
Staphylococcus aureus [32]
  MIC: 0.5 µg/mL
HEK-293T
  Activity: Non-toxic
Staphylococcus aureus [33]
  Activity: Active
Staphylococcus aureus [34]
  MIC: 1 µg/mL
Staphylococcus aureus [35]
  MIC: 1 µg/mL
Staphylococcus aureus [36]
  MIC: 1 µg/mL
Staphylococcus aureus [37]
  inhibition: Dose-dependent-effect
Staphylococcus aureus [38]
  MIC: 1 µg/mL
Staphylococcus aureus [39]
  Activity: Active
[40]
  HC50: > 256 µg/mL
Staphylococcus aureus [41]
  Activity: Dose-dependent-effect
Staphylococcus aureus [42]
  MIC: 0.5 µg/mL
